System: sGC enzyme
Assay: cGMP GloSensor cell-based assay, 384-well format (HEK293)
Set-up: species or system human
Settings: HEK293 GloSensor 40F cGMP cells, 10 μM DETA-NONOate, geometrical mean; read-out: Glo EC50
Excerpt: Human embryonic kidney cells (HEK293) cells expressing GloSensor™ 40F cGMP (Part No: CS182801, Promega) were used to evaluate the activity of test compounds. The luminescent biosensors (engineered luciferase) that were incorporated into these cells detect cGMP formed by the compounds stimulating the sGC enzyme and emit luminescence.
cGMP GloSensor cells were maintained in Dulbecco's Modification of Eagle's Medium (DMEM) supplemented with fetal bovine serum (FBS, 10% final) and hygromycine (200 ug/ml). The day before assay, cells were plated in DMEM with 10% FBS in a 50 μL volume at a density of 1.5×10^4 cells/well in a poly-D-lysine coated 384-well flat white-bottom plate (Corning Cat No 35661). Cells were incubated overnight at 37° C. in a humidified chamber with 5% CO2. The next day, medium was removed and cells were replaced with 40 ul/well of GloSensor™, 2 mM (Promega Cat No E1291). Cells were treated for 90 minutes at 25° C. to allow the substrate to equilibrate in the cells. Test compounds and Diethylenetriamine NONOate (DETA-NONOate) was diluted to 3 mM (20×) in serum-free CO2 independent medium and serially diluted at 4× dilutions to create 5× dose curve from which 10 ul was added to the wells (x μM concentration for test compound solution and 10 μM concentration for DETA-NONOate solution; wherein x is one of the following final concentrations: 30 μM, 7.5 μM, 1.9 μM, 469 nM, 117 nM, 29.3 nM, 7.3 nM, 1.83 nM, 0.46 nM, 0.11 nM, 0.03 nM) For the kinetics studies, luminescense was measured right away for 0.2 sec per well with Envision (Perkin Elmer). For endpoint SAR screening, data were collected after 55 min incubation at room temperature.
Concentration response data were analyzed using a 4-parameter fit (log (agonist) vs. response-variable slope). The EC50 was interpolated from the curve fit and is defined as the concentration at which the compound elicits 50% of its maximal response. When the experiment was carried out multiple times for a given compound, the geometrical mean of all experiments is reported.

Compound	EC50 [nM]
Oc1nc(-c2cn3c(F)cnc3c(Cc3cc(F)ccc3F)n2)ncc1F [Compound I-5]	≤ 100
Oc1nc(-c2cn3ccnc3c(Cc3cc(F)ccc3F)n2)ncc1Cl [Compound I-16, 5-chloro-2-(8-(2,5-difluorobenzyl)imidazo[1,2-a]pyrazin-6-yl)pyrimidin-4-ol]	≤ 100
Cc1cc(F)c(Cc2nc(-c3ncc(F)c(O)n3)cn3ccnc23)cc1F [Compound I-14, 5-fluoro-2-(8-(2,5-difluoro-4-methylbenzyl)imidazo[1,2-a]pyrazin-6-yl)pyrimidin-4-ol]	≤ 100
Oc1nc(-c2cn3ccnc3c(Cc3ccccc3)n2)ncc1F [Compound I-2, 2-(8-Benzylimidazo[1,2-a]pyrazin-6-yl)-5-fluoropyrimidin-4-ol]	100 to 1000
Oc1nc(-c2cn3ccnc3c(Cc3ccccc3F)n2)ncc1F [Compound I-21]	100 to 1000
Oc1nc(-c2cn3ccnc3c(Cc3cc(F)ccc3F)n2)ncc1F [Compound I-20, 5-fluoro-2-(8-(2,5-difluorobenzyl)imidazo[1,2-a]pyrazin-6-yl)pyrimidin-4-ol]	≤ 100
Cc1cc(F)c(Cc2nc(-c3ncc(F)c(O)n3)cn3c(F)cnc23)cc1F [Compound I-18]	≤ 100
Oc1nc(-c2cn3ncnc3c(Cc3ccccc3F)n2)ncc1F [Compound I-23]	100 to 1000
Oc1nc(-c2cn3ccnc3c(Cc3cccc(F)c3F)n2)ncc1F [Compound I-4, 2-(8-(2,3-Difluorobenzyl)imidazo[1,2-a]pyrazin-6-yl)-5-fluoropyrimidin-4-ol]	100 to 1000
Cc1cc(F)c(Cc2nc(-c3nccc(O)n3)cn3ccnc23)cc1F [Compound I-15, 2-(8-(2,5-difluoro-4-methylbenzyl)imidazo[1,2-a]pyrazin-6-yl)pyrimidin-4-ol]	100 to 1000
Cc1cc(F)c(Cc2nc(-c3ncc(F)c(O)n3)cn3ncnc23)cc1F [Compound I-19, 5-Fluoro-2-(8-(2,5-difluoro-4-methylbenzyl)-[1,2,4]triazolo[1,5-a]pyrazin-6-yl)pyrimidin-4-ol]	100 to 1000

From US20240207265A1, “TREATMENT OF CNS DISEASES WITH sGC STIMULATORS” (Tisento Therapeutics Inc., priority 2021, published 2024)
